Structures are written as SMILES.

Data set [1] in a line: Test G: Determination of in vitro Stability, rat liver microsomes. It counts as in vitro ADME, Sprague-Dawley rats. The conditions noted are these: liver microsomes from rats, 37° C., up to 60 minutes. The procedure: (§1) Determination of in vitro Stability
(§2) Liver microsomes were prepared from Sprague-Dawley rats and human liver samples according to internal SOPs. The compounds were incubated at 37° C. at a total microsome protein concentration of 3 mg/mL in a 0.05 mol/L TRIS buffer at pH 7.4, in the presence of the cofactors NADH (2.5 mmol/L) and NADPH (0.8 mmol/L). The initial concentration of compound was 5 or 10 μmol/L. Samples were taken for analysis up to 60 minutes after the start of the incubation. The enzymatic activity in the collected sample was immediately stopped by adding 20% […] at a volume corresponding to 3.3% of the total sample volume. The concentration of compound remaining (FINAL CONC) in the 60 min. sample was determined by means of LCMS using a sample collected at zero time as reference (START CONC). The % of degraded thrombin inhibitor was calculated as: [formula]
On the technique in general: Liver microsomes are vesicles of endoplasmic reticulum, rich in cytochrome P450 enzymes.

Data set [2] in a line: Test G: Determination of in vitro Stability, human liver microsomes. It counts as in vitro ADME. The note with it: liver microsomes from humans, 37° C., up to 60 minutes. As to the method: as §1, §2
A short description of data set [3]: Test E: Determination of Thrombin Time ex vivo (plasma concentration of thrombin inhibitor after oral or parenteral administration). The conditions noted are these: conscious rats. It is filed as in vivo, rat. The source says:
Determination of Thrombin Time ex vivo
The inhibition of thrombin after oral or parenteral administration of the compounds of the invention, dissolved in ethanol:Solutol™:water (5:5:90), is examined in conscious rats which, one or two days prior to the experiment, are equipped with a catheter for blood sampling from the carotid artery. On the experimental day blood samples are withdrawn at fixed times after the administration of the compound into plastic tubes containing 1 part sodium citrate solution (0.13 mol per L) and 9 parts of blood. The tubes are centrifuged to obtain platelet poor plasma.
50 μL of plasma samples are precipitated with 100 μL of cold acetonitrile. The samples are centrifuged for 10 minutes at 4000 rpm. 75 μL of the supernatant is diluted with 75 μL of 0.2% formic acid. 10 μL volumes of the resulting solutions are analysed by LC-MS/MS and the concentrations of thrombin inhibitor are determined using standard curves.

Regarding `CNc1cc(Cl)cc([C@@H](O)C(=O)N2CC[C@H]2C(=O)NCc2ccc(C(N)=NOC)cc2)c1` [Example 3, Ph(3-Cl)(5-NHMe)-(R)CH(OH)C(O)-(S)Aze-Pab(OMe)], the “conversion to the corresponding active inhibitor (free amidine)” value in data set [1] and in data set [2] was “converted to the corresponding active inhibitor (free amidine)” throughout. Also, the “oral and/or parenteral bioavailability as the corresponding active inhibitor (free amidine)” value in data set [3] is reported as “exhibit oral and/or parenteral bioavailability in the rat as the corresponding active inhibitor (free amidine)”.

Consider `CC(=O)Nc1cc(Cl)cc([C@@H](O)C(=O)N2CC[C@H]2C(=O)NCc2ccc(C(N)=NOC(C)C)cc2)c1` [Example 6, Ph(3-Cl)(5-NHAc)-(R)CH(OH)C(O)-(S)Aze-Pab(OiPr)], for which the “oral and/or parenteral bioavailability as the corresponding active inhibitor (free amidine)” value in data set [3] was “exhibit oral and/or parenteral bioavailability in the rat as the corresponding active inhibitor (free amidine)”.

For the origin of these results see patent publication US6433186B1, “Amidino derivatives and their use as thormbin inhibitors” (AstraZeneca AB, priority 2000, dated 2002).
